ChEMBL document CHEMBL1201862, “PubChem BioAssay data set” (2004)
Calls of active or inactive are those of the source.

Key:
Protein skinhead-1 = biological target: T1, Protein skinhead-1 (Caenorhabditis elegans, UniProt P34707); type: functional
T1 sequence (P34707 whole entry): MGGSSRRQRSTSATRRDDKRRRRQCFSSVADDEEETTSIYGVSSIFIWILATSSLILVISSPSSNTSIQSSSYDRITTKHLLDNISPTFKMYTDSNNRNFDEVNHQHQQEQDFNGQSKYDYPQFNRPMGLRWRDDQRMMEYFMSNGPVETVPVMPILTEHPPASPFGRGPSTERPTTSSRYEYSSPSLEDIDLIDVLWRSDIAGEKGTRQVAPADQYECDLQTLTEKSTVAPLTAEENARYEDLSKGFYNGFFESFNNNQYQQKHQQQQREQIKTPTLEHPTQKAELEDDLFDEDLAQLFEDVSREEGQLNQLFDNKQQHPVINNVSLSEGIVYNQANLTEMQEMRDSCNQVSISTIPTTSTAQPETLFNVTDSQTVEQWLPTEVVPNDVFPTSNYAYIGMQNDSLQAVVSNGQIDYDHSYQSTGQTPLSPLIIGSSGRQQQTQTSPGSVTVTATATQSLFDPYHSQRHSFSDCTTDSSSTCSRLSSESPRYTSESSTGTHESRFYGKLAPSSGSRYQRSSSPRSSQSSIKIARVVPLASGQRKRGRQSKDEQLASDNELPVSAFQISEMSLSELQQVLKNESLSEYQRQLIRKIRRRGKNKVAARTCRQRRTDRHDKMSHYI

Cytochrome P450 2C9 = Cytochrome P450 2C9 (Homo sapiens, UniProt P11712)
Sequence of Cytochrome P450 2C9 (P11712 whole entry): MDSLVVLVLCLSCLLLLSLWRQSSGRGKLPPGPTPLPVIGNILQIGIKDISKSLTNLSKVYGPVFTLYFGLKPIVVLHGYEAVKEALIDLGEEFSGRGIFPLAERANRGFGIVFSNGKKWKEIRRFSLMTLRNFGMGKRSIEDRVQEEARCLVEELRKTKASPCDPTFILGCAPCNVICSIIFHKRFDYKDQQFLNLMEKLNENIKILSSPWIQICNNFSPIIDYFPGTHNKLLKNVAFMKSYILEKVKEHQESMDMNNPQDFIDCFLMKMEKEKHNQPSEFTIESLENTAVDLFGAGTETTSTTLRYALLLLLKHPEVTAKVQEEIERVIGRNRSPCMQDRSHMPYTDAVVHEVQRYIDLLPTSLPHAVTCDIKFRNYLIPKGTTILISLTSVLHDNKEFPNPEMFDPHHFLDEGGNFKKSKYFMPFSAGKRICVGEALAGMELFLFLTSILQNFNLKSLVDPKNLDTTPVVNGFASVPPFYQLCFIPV

[1] = biological target: Voltage-dependent T-type calcium channel subunit alpha-1H (Homo sapiens, UniProt O95180); type: functional;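 further: channel activity triggered by adding a high calcium stimulation buffer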
Sequence of Voltage-dependent T-type calcium channel subunit alpha-1H (O95180 whole entry): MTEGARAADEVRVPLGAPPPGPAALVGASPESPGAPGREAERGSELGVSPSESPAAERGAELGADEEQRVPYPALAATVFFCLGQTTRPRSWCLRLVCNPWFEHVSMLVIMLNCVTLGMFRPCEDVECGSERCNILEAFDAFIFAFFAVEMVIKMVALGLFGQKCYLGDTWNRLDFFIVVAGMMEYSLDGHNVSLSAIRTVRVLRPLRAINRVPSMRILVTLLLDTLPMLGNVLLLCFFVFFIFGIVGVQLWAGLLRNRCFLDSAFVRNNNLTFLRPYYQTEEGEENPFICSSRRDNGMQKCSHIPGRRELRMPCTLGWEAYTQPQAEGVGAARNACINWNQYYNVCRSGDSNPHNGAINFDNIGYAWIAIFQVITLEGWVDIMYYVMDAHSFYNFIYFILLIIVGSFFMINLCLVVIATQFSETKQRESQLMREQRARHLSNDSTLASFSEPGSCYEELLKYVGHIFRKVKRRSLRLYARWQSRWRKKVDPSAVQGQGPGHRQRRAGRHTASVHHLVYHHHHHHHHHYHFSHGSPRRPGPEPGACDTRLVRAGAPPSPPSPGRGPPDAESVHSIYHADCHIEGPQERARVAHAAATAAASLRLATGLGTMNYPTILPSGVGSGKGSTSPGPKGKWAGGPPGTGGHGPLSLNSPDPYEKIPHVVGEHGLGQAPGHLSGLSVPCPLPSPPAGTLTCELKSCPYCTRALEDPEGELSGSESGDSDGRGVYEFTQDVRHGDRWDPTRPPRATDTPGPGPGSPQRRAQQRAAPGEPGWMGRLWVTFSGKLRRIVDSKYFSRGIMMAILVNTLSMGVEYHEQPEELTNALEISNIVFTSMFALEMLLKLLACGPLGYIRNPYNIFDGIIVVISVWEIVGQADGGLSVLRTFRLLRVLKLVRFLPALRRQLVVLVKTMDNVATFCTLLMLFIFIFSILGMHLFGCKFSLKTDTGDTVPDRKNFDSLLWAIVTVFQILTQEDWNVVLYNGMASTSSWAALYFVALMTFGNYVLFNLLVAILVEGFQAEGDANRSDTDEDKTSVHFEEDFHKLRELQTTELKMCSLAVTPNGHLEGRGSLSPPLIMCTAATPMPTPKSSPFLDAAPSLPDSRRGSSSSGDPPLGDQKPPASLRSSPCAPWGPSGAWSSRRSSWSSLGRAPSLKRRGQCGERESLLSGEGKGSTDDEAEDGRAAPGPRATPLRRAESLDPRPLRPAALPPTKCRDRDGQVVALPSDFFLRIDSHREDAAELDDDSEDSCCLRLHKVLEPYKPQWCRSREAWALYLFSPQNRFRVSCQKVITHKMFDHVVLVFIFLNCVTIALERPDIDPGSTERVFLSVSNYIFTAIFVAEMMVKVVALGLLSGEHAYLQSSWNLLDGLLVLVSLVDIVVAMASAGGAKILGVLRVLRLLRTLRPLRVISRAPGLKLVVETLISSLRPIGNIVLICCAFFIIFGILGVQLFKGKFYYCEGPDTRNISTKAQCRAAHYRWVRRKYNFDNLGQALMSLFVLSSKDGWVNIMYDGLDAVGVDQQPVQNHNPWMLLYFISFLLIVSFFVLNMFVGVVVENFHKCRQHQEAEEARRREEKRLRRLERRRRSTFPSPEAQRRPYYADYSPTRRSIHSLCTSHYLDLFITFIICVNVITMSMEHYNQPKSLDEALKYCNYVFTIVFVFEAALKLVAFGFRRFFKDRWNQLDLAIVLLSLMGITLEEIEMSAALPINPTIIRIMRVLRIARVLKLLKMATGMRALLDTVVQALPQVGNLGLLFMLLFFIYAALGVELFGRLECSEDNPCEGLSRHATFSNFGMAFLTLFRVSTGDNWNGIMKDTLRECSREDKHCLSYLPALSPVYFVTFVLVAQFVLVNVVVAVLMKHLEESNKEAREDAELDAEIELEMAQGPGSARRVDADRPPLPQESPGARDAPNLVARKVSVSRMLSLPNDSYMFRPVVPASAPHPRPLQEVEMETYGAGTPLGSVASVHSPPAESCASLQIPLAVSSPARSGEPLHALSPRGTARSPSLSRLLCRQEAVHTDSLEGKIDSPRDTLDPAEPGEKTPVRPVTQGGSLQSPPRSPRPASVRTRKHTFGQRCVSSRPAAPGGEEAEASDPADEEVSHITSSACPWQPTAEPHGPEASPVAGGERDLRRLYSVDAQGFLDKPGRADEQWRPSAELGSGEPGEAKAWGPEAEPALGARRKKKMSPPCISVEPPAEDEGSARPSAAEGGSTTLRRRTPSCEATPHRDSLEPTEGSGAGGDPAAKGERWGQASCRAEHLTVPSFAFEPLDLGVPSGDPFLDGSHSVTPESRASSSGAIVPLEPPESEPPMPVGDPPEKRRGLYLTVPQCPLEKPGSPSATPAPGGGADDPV

[2] = cytotoxicity toward NIH3T3 fibroblasts, dose response, counter-screen, cell-based, ATP luminescence, mouse fibroblasts (AID 2010); type: functional;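 further: cells exposed to compound for about 90 hours before reading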
[3] = inhibitors of intracellular T. cruzi replication, confirmation, NIH3T3 host cells, beta-gal luminescence (AID 2044); type: functional, cell-based;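 further: intracellular parasites grown in NIH/3T3 mouse fibroblasts as host cells; luminescent beta-galactosidase reporter signal from transgenic T. cruzi replicating inside host cells; inhibitors lower the luminescence signal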
Cytochrome P450 2C19 = Cytochrome P450 2C19 (Homo sapiens, UniProt P33261); assay: Cytochrome panel assay with activity outcomes. Panel member name: p450-cyp2c19 Compounds with AC50 equal or less than 10 uM are considered active; type: functional
Sequence of Cytochrome P450 2C19 (P33261 whole entry): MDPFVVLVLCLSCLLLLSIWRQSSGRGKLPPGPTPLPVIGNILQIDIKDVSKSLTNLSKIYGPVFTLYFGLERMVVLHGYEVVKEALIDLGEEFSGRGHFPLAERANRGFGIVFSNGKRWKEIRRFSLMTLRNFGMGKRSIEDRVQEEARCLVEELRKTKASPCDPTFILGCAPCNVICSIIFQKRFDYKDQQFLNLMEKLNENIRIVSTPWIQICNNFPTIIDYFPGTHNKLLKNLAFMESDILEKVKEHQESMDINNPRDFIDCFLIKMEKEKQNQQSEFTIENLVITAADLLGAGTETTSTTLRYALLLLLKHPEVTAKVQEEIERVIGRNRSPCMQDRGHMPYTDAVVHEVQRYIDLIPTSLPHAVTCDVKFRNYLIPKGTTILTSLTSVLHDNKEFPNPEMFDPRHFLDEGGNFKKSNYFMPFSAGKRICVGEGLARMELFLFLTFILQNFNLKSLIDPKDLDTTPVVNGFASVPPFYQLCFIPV

Large T antigen = Large T antigen (Simian virus 40, UniProt P03070); type: functional, Betapolyomavirus macacae;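 further: Confirmatory-stage PubChem screen for compounds that inhibit SV40 T antigen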
Sequence of Large T antigen (P03070 whole entry): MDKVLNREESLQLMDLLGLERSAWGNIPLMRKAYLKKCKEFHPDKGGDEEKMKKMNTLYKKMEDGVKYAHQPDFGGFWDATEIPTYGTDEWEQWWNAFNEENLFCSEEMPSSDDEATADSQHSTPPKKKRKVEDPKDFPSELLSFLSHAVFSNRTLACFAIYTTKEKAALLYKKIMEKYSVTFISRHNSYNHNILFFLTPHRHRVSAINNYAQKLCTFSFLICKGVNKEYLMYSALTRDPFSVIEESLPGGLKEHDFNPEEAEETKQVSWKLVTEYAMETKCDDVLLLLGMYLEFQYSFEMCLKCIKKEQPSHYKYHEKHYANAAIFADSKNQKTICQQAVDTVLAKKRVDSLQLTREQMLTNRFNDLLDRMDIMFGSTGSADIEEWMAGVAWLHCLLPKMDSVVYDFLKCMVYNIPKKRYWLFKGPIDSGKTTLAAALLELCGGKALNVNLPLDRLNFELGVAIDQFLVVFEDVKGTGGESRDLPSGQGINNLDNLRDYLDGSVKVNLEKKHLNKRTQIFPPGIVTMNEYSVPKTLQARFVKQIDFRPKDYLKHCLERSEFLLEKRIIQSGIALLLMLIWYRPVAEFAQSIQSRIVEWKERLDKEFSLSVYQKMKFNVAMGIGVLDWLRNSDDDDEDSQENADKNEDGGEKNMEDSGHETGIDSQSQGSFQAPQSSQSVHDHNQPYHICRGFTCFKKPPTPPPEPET

[4] = Luminescence Cell-Based Dose Retest to Confirm Inhibitors of Cancer Stem Cells. [Related pubchem assays (depositor defined):AID2717, AID2721]; type: functional; details: Homo sapiens
Aminopeptidase N = biological target: T2, Aminopeptidase N (Plasmodium falciparum FcB1/Columbia, UniProt O96935); assay: P. falciparum M1AAP inhibitors, biochemical, fluorogenic H-Leu-NHMec substrate, 1536-well (AID 1445); parameters: species or system Plasmodium falciparum 3D7, 3D7
T2 sequence (O96935 whole entry): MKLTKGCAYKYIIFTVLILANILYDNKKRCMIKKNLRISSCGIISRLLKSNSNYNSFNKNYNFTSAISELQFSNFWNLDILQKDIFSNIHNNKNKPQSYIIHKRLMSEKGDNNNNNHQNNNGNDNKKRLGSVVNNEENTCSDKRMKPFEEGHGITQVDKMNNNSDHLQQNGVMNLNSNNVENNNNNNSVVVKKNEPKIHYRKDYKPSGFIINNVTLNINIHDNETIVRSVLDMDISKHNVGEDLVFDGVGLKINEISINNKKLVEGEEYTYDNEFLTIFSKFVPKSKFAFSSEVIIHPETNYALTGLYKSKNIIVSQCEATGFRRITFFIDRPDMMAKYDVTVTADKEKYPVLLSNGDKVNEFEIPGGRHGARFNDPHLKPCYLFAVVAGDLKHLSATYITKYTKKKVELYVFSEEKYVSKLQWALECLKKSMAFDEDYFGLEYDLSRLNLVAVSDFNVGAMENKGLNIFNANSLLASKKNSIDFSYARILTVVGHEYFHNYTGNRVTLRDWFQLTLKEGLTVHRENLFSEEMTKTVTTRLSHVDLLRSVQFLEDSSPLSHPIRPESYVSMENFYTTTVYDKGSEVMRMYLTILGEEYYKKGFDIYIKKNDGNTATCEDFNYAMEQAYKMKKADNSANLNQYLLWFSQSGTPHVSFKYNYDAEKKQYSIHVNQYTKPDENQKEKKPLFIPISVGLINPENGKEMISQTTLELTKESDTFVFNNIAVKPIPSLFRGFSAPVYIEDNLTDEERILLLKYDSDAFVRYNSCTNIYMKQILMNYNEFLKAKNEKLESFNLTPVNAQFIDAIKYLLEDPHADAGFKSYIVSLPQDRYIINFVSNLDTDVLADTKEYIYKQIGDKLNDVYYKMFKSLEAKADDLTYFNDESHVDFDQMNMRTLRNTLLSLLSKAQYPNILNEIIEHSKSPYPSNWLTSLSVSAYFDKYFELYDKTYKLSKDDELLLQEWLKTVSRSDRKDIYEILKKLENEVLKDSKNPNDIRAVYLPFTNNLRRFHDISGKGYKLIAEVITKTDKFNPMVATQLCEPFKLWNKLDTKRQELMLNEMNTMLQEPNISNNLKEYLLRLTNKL

[5] = microbe, parasite or virus in culture; type: functional; details: Mycobacterium tuberculosis
[6] = Vero E6 cell cytotoxicity, dose response, cytotoxicity control for non-replicating M. tuberculosis project, secondary assay (AID 492998); type: functional, VeroE6; details: Vero C1008
[7] = HepG2 cell cytotoxicity, dose response, cytotoxicity control for non-replicating M. tuberculosis project (AID 489018); type: functional; details: Mycobacterium tuberculosis
[8] = THP-1 cell cytotoxicity, dose response, cytotoxicity control for non-replicating M. tuberculosis project (AID 489025); type: functional
cells = type: functional
Streptococcus = assay: Group A Streptococcus viability loss, dose response, counter-screen for streptokinase expression inhibitor project, luminescence, BacTiterGlo (AID 1915); type: functional, organism-based;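 further: potency for reduction of bacterial viability or growth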
Streptokinase A = biological target: T3, Streptokinase A (Streptococcus pyogenes serotype M1, UniProt P10520); assay: S. pyogenes streptokinase expression inhibitors, potency, dose response, plasminogen activation absorbance, OD405 (AID 1914); type: functional, Streptococcus pyogenes M1 GAS;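 further: secreted streptokinase activity via plasminogen activation per viability signal from cell pellet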
T3 sequence (P10520 whole entry): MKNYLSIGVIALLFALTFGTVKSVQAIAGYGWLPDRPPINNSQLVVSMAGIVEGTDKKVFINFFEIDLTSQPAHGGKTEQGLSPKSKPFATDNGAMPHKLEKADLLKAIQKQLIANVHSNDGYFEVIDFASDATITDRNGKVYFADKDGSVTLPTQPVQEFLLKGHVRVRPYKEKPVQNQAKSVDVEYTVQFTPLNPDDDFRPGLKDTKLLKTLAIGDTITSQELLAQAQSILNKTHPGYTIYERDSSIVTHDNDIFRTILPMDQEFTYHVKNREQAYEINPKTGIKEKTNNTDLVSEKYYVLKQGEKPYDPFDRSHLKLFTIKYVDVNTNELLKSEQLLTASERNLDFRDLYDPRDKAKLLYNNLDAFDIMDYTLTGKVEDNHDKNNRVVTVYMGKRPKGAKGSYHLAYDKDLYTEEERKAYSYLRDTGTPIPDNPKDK

[9] = test system: Streptococcus sp. 'group A'; assay: growth inhibition of control SK(-) GAS strain, dose response, counter-screen for streptokinase expression inhibitor project, luminescence, kanamycin, BacTiterGlo, confirmation (AID 1900); type: functional, organism-based
Cytochrome P450 1A2 = biological target: T4, Cytochrome P450 1A2 (Homo sapiens, UniProt P05177);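 further: PubChem cytochrome P450 panel assay, CYP1A2 panel member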
T4 sequence (P05177 whole entry): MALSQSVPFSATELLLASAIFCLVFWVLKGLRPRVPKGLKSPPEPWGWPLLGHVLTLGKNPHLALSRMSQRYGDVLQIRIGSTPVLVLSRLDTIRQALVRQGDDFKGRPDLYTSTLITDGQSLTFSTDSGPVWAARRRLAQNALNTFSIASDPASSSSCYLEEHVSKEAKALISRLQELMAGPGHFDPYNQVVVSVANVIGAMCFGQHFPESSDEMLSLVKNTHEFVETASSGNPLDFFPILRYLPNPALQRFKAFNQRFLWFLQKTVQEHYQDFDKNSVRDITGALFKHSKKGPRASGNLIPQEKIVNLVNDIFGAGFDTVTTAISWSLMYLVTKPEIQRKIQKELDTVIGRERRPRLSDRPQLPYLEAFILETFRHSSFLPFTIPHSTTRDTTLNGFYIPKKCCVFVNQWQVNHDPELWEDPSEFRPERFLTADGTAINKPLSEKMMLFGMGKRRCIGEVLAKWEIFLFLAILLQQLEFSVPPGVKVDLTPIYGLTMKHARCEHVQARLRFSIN

Fatty acid synthase [10] = biological target: T5, Fatty acid synthase (Homo sapiens, UniProt P49327); assay: FAS thioesterase domain inhibitors, dose response, biochemical, endpoint fluorescence intensity, uHTS hits (AID 624327); type: functional;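 further: fluorescence from hydrolysis of an O-methyl fluorescein acyl ester substrate by the enzyme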
Fatty acid synthase [11] = biological target: T5, Fatty acid synthase; assay: FAS thioesterase domain inhibitors, dose response, biochemical, kinetic fluorescence intensity (AID 624326); type: functional;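 further: rate of fluorescence rise from hydrolysis of a fluorogenic O-methyl fluorescein ester substrate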
Leucine aminopeptidase = biological target: T6, Leucine aminopeptidase (Plasmodium falciparum 3D7, UniProt Q8IL11); assay: P. falciparum M17LAP inhibitors, primary screen, biochemical, fluorogenic H-Leu-NHMec substrate, 1536-well (AID 1619); type: functional
T6 sequence (Q8IL11 whole entry): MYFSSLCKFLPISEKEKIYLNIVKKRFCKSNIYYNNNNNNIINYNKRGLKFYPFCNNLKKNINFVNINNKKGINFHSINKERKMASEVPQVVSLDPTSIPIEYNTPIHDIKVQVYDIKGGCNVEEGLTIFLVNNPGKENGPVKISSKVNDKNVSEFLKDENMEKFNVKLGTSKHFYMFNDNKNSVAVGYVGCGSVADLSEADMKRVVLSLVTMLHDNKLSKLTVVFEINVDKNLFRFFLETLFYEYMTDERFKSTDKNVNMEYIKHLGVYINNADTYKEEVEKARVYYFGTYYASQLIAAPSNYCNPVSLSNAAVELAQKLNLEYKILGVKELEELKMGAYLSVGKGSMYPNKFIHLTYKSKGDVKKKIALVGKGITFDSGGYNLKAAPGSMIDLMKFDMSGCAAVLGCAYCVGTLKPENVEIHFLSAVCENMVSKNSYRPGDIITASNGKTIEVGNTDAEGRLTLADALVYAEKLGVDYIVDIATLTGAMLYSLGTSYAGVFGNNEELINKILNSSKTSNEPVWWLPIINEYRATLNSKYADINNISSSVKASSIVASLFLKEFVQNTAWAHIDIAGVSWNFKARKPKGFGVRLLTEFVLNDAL

[12] = inhibitors of HIV Env-driven cell fusion, dose response, cherry-pick (AID 652057); type: functional, cell-based
[13] = ZM109 Env clade C HIV-1 fusion inhibitors, dose response, HeLa effector, CEM target cells, luciferase, cherry-pick (AID 652058); type: functional, cell-based
[14] = inhibitors of clade B AD8 Env fusion, dose response, cell-based, cherry-pick (AID 652062); type: functional;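 further: luciferase signal from cell-cell fusion driven by HIV-1 clade B AD8 Env; potency is for inhibitors of fusion seen as a drop in luminescence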

## CCn1c(SCC(=O)NC2CCCCC2)nnc1-c1cc2cccc(OC)c2o1
Protein skinhead-1
  IC50: > 100 µM (inactive)
Cytochrome P450 2C9
  AC50: inconclusive

## Cc1c(Cl)cccc1NC(=O)c1nc(C)n(-c2cc(OC(C)C)c(Cl)cc2Cl)n1
[1]
  EC50: 7.19 µM (active)
[2]
  EC50: > 60 µM (not active)
[3]
  EC50: 2.77 µM (active)

## O=S(=O)(c1ccc(Oc2ccc(Cl)cc2)c(S(=O)(=O)N2CCCCC2)c1)N1CCCCC1
[1]
  EC50: 2.28 µM (active)

## C[C@@H](NC(=O)/C(C#N)=C/c1ccc(O)c(O)c1)c1ccccc1
Cytochrome P450 2C19; read-out: AC50
  AC50: 39.8 µM (inconclusive)
Large T antigen
  IC50: 7.28 µM (active)
Cytochrome P450 2C9
  AC50: inconclusive

## CCC1=NN2C(=N)/C(=C/c3c(C)nn(-c4ccccc4)c3Cl)C(=O)N=C2S1
[4]
  AC50: 78.8 µM (active)
Aminopeptidase N
  IC50: 46.1 µM (active)

## CCn1c(NC(=O)c2nn(C)cc2Br)nc2ccccc21
[5]
  CC50: > 40 µM (active)
[6]
  CC50: > 20 µM (active)
[7]
  CC50: > 20 µM (active)
[8]
  CC50: > 40 µM (active)
cells
  IC50: 5.5 µM (active)

## Cc1cc(NC(=O)c2sccc2C)n(-c2nc3ccccc3[nH]2)n1
Streptococcus
  EC50: 5.49 µM (active)
[5]
  CC50: 28.5 µM (active)
[6]
  CC50: 12.8 µM (active)
[7]
  CC50: > 20 µM (active)
[8]
  CC50: > 40 µM (active)
Streptokinase A
  EC50: > 150 µM (not active)
cells
  IC50: 4.09 µM (active)
[9]
  EC50: 3.9 µM (active)

## Cc1cccc(C)c1NC(=O)CSc1nnc(-c2ccccc2)n1Cc1ccc2c(c1)OCO2
[1]
  EC50: 5.4 µM (active)

## CCCCCCCC(=O)N/N=C(\C)c1ccc(O)cc1O
[6]
  CC50: 12.6 µM (active)
[7]
  CC50: 20 µM (active)
[8]
  CC50: 20 µM (active)

## CCC(=O)Nc1cc2c(cc1C(=O)c1ccccc1)OCCO2
Cytochrome P450 2C9
  AC50: inconclusive

## Cn1c(Oc2ccccc2)c(C=O)c2ccccc21
Cytochrome P450 2C9
  AC50: inconclusive

## Nc1nc(S)nc(O)c1/N=N\c1c(Br)cc(S(N)(=O)=O)cc1Br
Cytochrome P450 2C19
  AC50: inconclusive
Cytochrome P450 1A2
  AC50: 3.16 µM (inconclusive)
Cytochrome P450 2C9
  AC50: inconclusive

## C=CCn1cc(C(=O)NCc2ccco2)c(=O)c2cc(S(=O)(=O)N3CCCCCC3)ccc21
Fatty acid synthase [10]
  IC50: 6.69 µM (active)
Fatty acid synthase [11]
  IC50: 7.26 µM (active)
[1]
  EC50: 6.32 µM (active)

## Cc1ccc(-c2n[nH]c3c2C(c2cccc(O)c2)N(c2ccc(C(=O)O)cc2)C3=O)cc1 (stereo not given)
Aminopeptidase N
  IC50: 36.6 µM (active)

## CC(C)NS(=O)(=O)c1ccc(CCC(=O)NCc2ccc3c(c2)OCO3)cc1
Aminopeptidase N
  IC50: 33.6 µM (active)

## COc1ccc(/C=N/NC(=O)CSc2nnc(O)nc2O)cc1
Aminopeptidase N
  IC50: 29 µM (active)
Leucine aminopeptidase
  IC50: 7.36 µM (active)

## CC(Sc1nnnn1-c1ccccc1)C(=O)Nc1ccc(Cl)cn1 (stereo not given)
[1]
  EC50: 6.14 µM (active)

## O=C(CSc1nnc(-c2ccc(Cl)cc2)n1Cc1ccco1)NCc1ccc2c(c1)OCO2
[1]
  EC50: 1.11 µM (active)

## C[C@H](CO)N1C[C@H](C)[C@H](CN(C)C(=O)NC2CCCC2)Oc2cc(C#Cc3ccc(F)cc3)ccc2S1(=O)=O
[12]
  AC50: 24.5 µM (active)
[13]
  AC50: 13.2 µM (active)
[14]
  AC50: 24.9 µM (active)
